Data taken from patent US6495572B1, “Synergistic mixtures of an amino acid” (Agrogene Ltd., priority 1997, dated 2002).

Experiments:
Assay type in all cases: in vivo, Erysiphe graminis
powdery mildew in wheat = experiment: Control of powdery mildew on potted wheat plants in growth chamber; parameters: ED90: unit not given beside the values; details: for Observed Control (%): wheat
Protocol: (§1) β Amionbutyric acid and component (b) fungicides were tested against fungi on potted plants, as follows:
(§2) 12-15 seeds were sown in a pot of 0.5 liter in a mixture of ground, sand, and Perlite in a ratio of 1;1;1. After two weeks in a growth chamber the plants were used for experimentation only when the first true leave appeared. Spraying was done until runoff; waiting in the growth chamber for 24 hours. Inoculations of the fungus was done via dusting the plants with plants already infected. The then dusted plants were incubated 7 to 10 days at 20° in a growth chamber with an exposure of 12 hours to light at an intensity of 7000-800 lucs. The results of the fungul growth was done via visual estimation (0 to 4) of the infected leaves. The existence of synergism between the active components was calculated according to the Abbott Equation. [formula]
(§3) a=% control b the β-arninobutyric acid.
(§4) b=% control by the second component.
(§5) and where the synergism factor. SF is calculated thusly [formula]

[1] = test system: powdery mildew in cucumber; experiment: Control of powdery mildew on potted cucumber plants in growth chamber; details: for Observed Control (%): cucumber
Protocol: as §1, §2, §3, §4, §5

powdery mildew in barley = experiment: Control of powdery mildew on potted barley plants in growth chamber
Protocol: as §1, §2, §3, §4, §5

Fc1ccc([C@]2(Cn3cncn3)O[C@H]2c2ccccc2Cl)cc1 (racemic) [Epoxiconazole, epoxiconazole]
ED90 (powdery mildew in wheat; wheat (Table 6)): 0.5
Observed Control (%) (powdery mildew in wheat; Epoxiconazole 0.15 ppm alone): 25%
Observed Control (%) (powdery mildew in wheat; Epoxiconazole 0.6 ppm alone): 98%
Observed Control (%) (powdery mildew in wheat; Epoxiconazole 2.5 ppm alone): 100%
Observed Control (%) (powdery mildew in wheat; Epoxiconazole 10 ppm alone): 100%
ED90 ([1]; cucumber (Table 9)): 5.5
Observed Control (%) ([1]; Epoxiconazole 2.5 ppm alone): 60%
Observed Control (%) ([1]; Epoxiconazole 5 ppm alone): 96%
Observed Control (%) ([1]; Epoxiconazole 10 ppm alone): 96%
Observed Control (%) ([1]; Epoxiconazole 20 ppm alone): 100%

CCCN(CCOc1c(Cl)cc(Cl)cc1Cl)C(=O)n1ccnc1 [Prochloraz, prochloraz]
Observed Control (%) (powdery mildew in wheat; Prochloraz 1.25 ppm alone): 33%
Observed Control (%) (powdery mildew in wheat; Prochloraz 5 ppm alone): 42%
Observed Control (%) (powdery mildew in wheat; Prochloraz 10 ppm alone): 52%
Observed Control (%) (powdery mildew in barley; Prochloraz 1.25 ppm alone): 43%
Observed Control (%) (powdery mildew in barley; Prochloraz 5 ppm alone): 67%
Observed Control (%) (powdery mildew in barley; Prochloraz 10 ppm alone): 74%

CCCC1COC(Cn2cncn2)(c2ccc(Cl)cc2Cl)O1 (stereo not shown) [Propiconazole, propiconazole]
Observed Control (%) (powdery mildew in wheat; Propiconazole 0.5 ppm alone): 25%
Observed Control (%) (powdery mildew in wheat; Propiconazole 1 ppm alone): 50%
Observed Control (%) (powdery mildew in wheat; Propiconazole 2 ppm alone): 83%
Observed Control (%) (powdery mildew in barley; Propiconazole 0.5 ppm alone): 75%
Observed Control (%) (powdery mildew in barley; Propiconazole 1 ppm alone): 88%
Observed Control (%) (powdery mildew in barley; Propiconazole 2 ppm alone): 94%

CC(C)(C)C(O)(CCc1ccc(Cl)cc1)Cn1cncn1 (stereo not shown) [Tebuconazole, tebuconazole]
ED90 (powdery mildew in wheat; wheat (Table 5)): 1.0
Observed Control (%) (powdery mildew in wheat; Tebuconazole 0.15 ppm alone): 25%
Observed Control (%) (powdery mildew in wheat; Tebuconazole 0.6 ppm alone): 63%
Observed Control (%) (powdery mildew in wheat; Tebuconazole 2.5 ppm alone): 100%
Observed Control (%) (powdery mildew in wheat; Tebuconazole 10 ppm alone): 100%
ED90 ([1]; cucumber (Table 8)): 14
Observed Control (%) ([1]; Tebuconazole 2.5 ppm alone): 0%
Observed Control (%) ([1]; Tebuconazole 5 ppm alone): 80%
Observed Control (%) ([1]; Tebuconazole 10 ppm alone): 80%
Observed Control (%) ([1]; Tebuconazole 20 ppm alone): 92%

CC(C)(C)C(O)C(Oc1ccc(Cl)cc1)n1cncn1 (stereo not shown) [Triadimenol, triadimenol]
ED90 (powdery mildew in wheat; wheat (Table 7)): 1.0
Observed Control (%) (powdery mildew in wheat; Triadimenol 0.15 ppm alone): 25%
Observed Control (%) (powdery mildew in wheat; Triadimenol 0.6 ppm alone): 98%
Observed Control (%) (powdery mildew in wheat; Triadimenol 2.5 ppm alone): 100%
Observed Control (%) (powdery mildew in wheat; Triadimenol 10 ppm alone): 100%
ED90 ([1]; cucumber (Table 10)): 9.4
Observed Control (%) ([1]; Triadimenol 2.5 ppm alone): 60%
Observed Control (%) ([1]; Triadimenol 5 ppm alone): 88%
Observed Control (%) ([1]; Triadimenol 10 ppm alone): 96%
Observed Control (%) ([1]; Triadimenol 20 ppm alone): 96%

CC(N)CC(=O)O (stereo not drawn) [β-Aminobutyric acid, β-aminobutyric acid]
ED90 (powdery mildew in wheat; wheat (Table 5)): 684
ED90 (powdery mildew in wheat; wheat (Table 6)): 684
ED90 (powdery mildew in wheat; wheat (Table 7)): 684
Observed Control (%) (powdery mildew in wheat; BABA 16 ppm alone (Table 4)): 0%
Observed Control (%) (powdery mildew in wheat; BABA 62 ppm alone (Table 4)): 8%
Observed Control (%) (powdery mildew in wheat; BABA 125 ppm alone (Table 2)): 8%
Observed Control (%) (powdery mildew in wheat; BABA 125 ppm alone (Table 5)): 13%
Observed Control (%) (powdery mildew in wheat; BABA 125 ppm alone (Table 6)): 13%
Observed Control (%) (powdery mildew in wheat; BABA 125 ppm alone (Table 7)): 13%
Observed Control (%) (powdery mildew in wheat; BABA 250 ppm alone (Table 2)): 8%
Observed Control (%) (powdery mildew in wheat; BABA 250 ppm alone (Table 4)): 17%
Observed Control (%) (powdery mildew in wheat; BABA 250 ppm alone (Table 5)): 25%
Observed Control (%) (powdery mildew in wheat; BABA 250 ppm alone (Table 6)): 25%
Observed Control (%) (powdery mildew in wheat; BABA 250 ppm alone (Table 7)): 25%
Observed Control (%) (powdery mildew in wheat; BABA 500 ppm alone (Table 2)): 8%
Observed Control (%) (powdery mildew in wheat; BABA 500 ppm alone (Table 5)): 63%
Observed Control (%) (powdery mildew in wheat; BABA 500 ppm alone (Table 6)): 63%
Observed Control (%) (powdery mildew in wheat; BABA 500 ppm alone (Table 7)): 63%
Observed Control (%) (powdery mildew in wheat; BABA 1000 ppm alone (Table 2)): 17%
Observed Control (%) (powdery mildew in wheat; BABA 1000 ppm alone (Table 4)): 33%
Observed Control (%) (powdery mildew in wheat; BABA 1000 ppm alone (Table 5)): 100%
Observed Control (%) (powdery mildew in wheat; BABA 1000 ppm alone (Table 6)): 100%
Observed Control (%) (powdery mildew in wheat; BABA 1000 ppm alone (Table 7)): 100%
Observed Control (%) (powdery mildew in barley; BABA 16 ppm alone (Table 3)): 0%
Observed Control (%) (powdery mildew in barley; BABA 62 ppm alone (Table 3)): 50%
Observed Control (%) (powdery mildew in barley; BABA 125 ppm alone (Table 1)): 14%
Observed Control (%) (powdery mildew in barley; BABA 250 ppm alone (Table 1)): 14%
Observed Control (%) (powdery mildew in barley; BABA 250 ppm alone (Table 3)): 38%
Observed Control (%) (powdery mildew in barley; BABA 500 ppm alone (Table 1)): 14%
Observed Control (%) (powdery mildew in barley; BABA 1000 ppm alone (Table 1)): 14%
Observed Control (%) (powdery mildew in barley; BABA 1000 ppm alone (Table 3)): 70%
